Assay results from patent US9169254B2, “Spiroimidazolone derivative” (Chugai Seiyaku Kabushiki Kaisha, priority 2009, dated 2015).

The molecules below were run against T1, human PTH1 receptor (Homo sapiens, UniProt Q03431) (assay: In vitro cAMP signal activity in HKRK-B7 cells (LLC-PK1 cells overexpressing the human PTH1 receptor)). Conditions: HKRK-B7 cells; compound at 1×10^−3 M; cAMP produced as percentage of that produced by hPTH(1-34) at 100 nM.
T1 sequence (Q03431 27-593): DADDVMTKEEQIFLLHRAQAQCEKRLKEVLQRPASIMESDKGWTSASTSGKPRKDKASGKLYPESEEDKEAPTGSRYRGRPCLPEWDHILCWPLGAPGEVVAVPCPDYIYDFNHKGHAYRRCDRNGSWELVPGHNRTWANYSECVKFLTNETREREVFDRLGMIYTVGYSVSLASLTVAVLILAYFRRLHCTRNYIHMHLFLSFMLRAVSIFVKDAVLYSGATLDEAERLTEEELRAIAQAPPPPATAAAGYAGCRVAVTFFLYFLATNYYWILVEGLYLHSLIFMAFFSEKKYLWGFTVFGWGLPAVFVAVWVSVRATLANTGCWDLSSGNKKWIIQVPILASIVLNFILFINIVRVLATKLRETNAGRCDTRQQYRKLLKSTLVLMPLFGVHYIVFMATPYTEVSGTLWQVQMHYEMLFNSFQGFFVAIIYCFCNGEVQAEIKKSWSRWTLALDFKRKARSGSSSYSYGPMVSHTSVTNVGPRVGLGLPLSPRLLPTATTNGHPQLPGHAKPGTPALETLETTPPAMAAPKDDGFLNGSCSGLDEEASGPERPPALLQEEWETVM
Format: cell-based

Row | cAMP production activity (%) | Compound
1 | 56 | COCC(=O)N(C)c1ccc(/C=C/S(=O)(=O)N2CCC3(CC2)N=C(c2cccc(OC(F)(F)F)c2)NC3=O)c(C)c1 [Compound 450, 2-Methoxy-N-methyl-N-(3-methyl-4-{(E)-2-[4-oxo-2-(3-trifluoromethoxy-phenyl)-1,3,8-triaza-spiro[4.5]dec-1-ene-8-sulfonyl]-vinyl}-phenyl)-acetamide]
2 | 96 | Cc1c(CCS(=O)(=O)N2CCC3(CC2)N=C(c2cccc(OC(F)(F)F)c2)NC3=O)cccc1C(N)=O [Compound 410, 2-methyl-3-{2-[4-oxo-2-(3-trifluoromethoxy-phenyl)-1,3,8-triaza-spiro[4.5]dec-1-ene-8-sulfonyl]-ethyl}-benzamide]
3 | 77 | Cc1cc(C(=O)N2CCC(O)(CF)CC2)cc(C)c1/C=C/S(=O)(=O)N1CCC2(CC1)N=C(c1cccc(C(F)(F)C(F)(F)F)c1)NC2=O [Compound 1243, 8-{(E)-2-[4-(4-fluoromethyl-4-hydroxy-piperidine-1-carbonyl)-2,6-dimethyl-phenyl]-ethenesulfonyl}-2-(3-pentafluoroethyl-phenyl)-1,3,8-triaza-spiro[4.5]dec-1-en-4-one]
4 | 80 | COCCC1CCC(C2=NC3(CCN(S(=O)(=O)CCc4ccc(NC(C)=O)cc4C)CC3)C(=O)N2)CC1 (stereo not drawn) [Compound 927, N-[4-(2-{2-[4-(2-Methoxy-ethyl)-cyclohexyl]-4-oxo-1,3,8-triaza-spiro[4.5]dec-1-ene-8-sulfonyl}-ethyl)-3-methyl-phenyl]-acetamide]
5 | 136 | C=CCCCCC1=NC2(CCN([S@TB17](=O)(=O)/C=C/c3c(C)cc(N(C)C(N)=O)cc3C)CC2)C(=O)N1 [Compound 1119, 1-{4-[(E)-2-(2-hex-5-enyl-4-oxo-1,3,8-triaza-spiro[4.5]dec-1-ene-8-sulfonyl)-vinyl]-3,5-dimethyl-phenyl}-1-methyl-urea]
6 | 74 | Cc1cc(C(=O)N2CCC(C)(O)CC2)cc(C)c1/C=C/S(=O)(=O)N1CCC2(CC1)N=C(c1ccc(F)c(OCCCF)c1)NC2=O [Compound 1215, 2-[4-fluoro-3-(3-fluoro-propoxy)-phenyl]-8-{(E)-2-[4-(4-hydroxy-4-methyl-piperidine-1-carbonyl)-2,6-dimethyl-phenyl}-ethenesulfonyl]-1,3,8-triaza-spiro[4.5]dec-1-en-4-one]
7 | 78 | COCCN(C(N)=O)c1cc(C)c(CCS(=O)(=O)N2CCC3(CC2)N=C(C2CCC(CCC(F)(F)F)CC2)NC3=O)c(C)c1 (stereo not drawn) [Compound 827, 1-[3,5-dimethyl-4-(2-{4-oxo-2-[4-(3,3,3-trifluoro-propyl)-cyclohexyl]-1,3,8-triaza-spiro[4.5]dec-1-ene-8-sulfonyl}-ethyl)-phenyl]-1-(2-methoxy-ethyl)-urea]
8 | 47 | CC[C@H]1CC[C@H](C2=NC3(CCN(S(=O)(=O)/C=C/c4ccc(N5C(=O)NC(=O)C5C)cc4C)CC3)C(=O)N2)CC1 (stereo partly drawn) [Compound 625, 1-(4-{(E)-2-[2-(4-ethyl-cyclohexyl)-4-oxo-1,3,8-triaza-spiro[4.5]dec-1-ene-8-sulfonyl]-vinyl}-3-methyl-phenyl)-5-methyl-imidazolidine-2,4-dione]
9 | 80 | Cc1cc(N(C)C(N)=O)cc(C)c1CCS(=O)(=O)N1CCC2(CC1)N=C(CCCCCCCCCC(N)=O)NC2=O [Compound 1363, 10-(8-{2-[2,6-dimethyl-4-(1-methyl-ureido)-phenyl]-ethanesulfonyl}-4-oxo-1,3,8-triaza-spiro[4.5]dec-1-en-2-yl)-decanoic acid amide]
10 | 97 | Cc1cc(C(=O)N2CCC(C)(O)CC2)cc(C)c1CCS(=O)(=O)N1CCC2(CC1)N=C(c1ccc(F)c(OC(F)(F)F)c1)NC2=O [Compound 1335, 2-(4-fluoro-3-trifluoromethoxy-phenyl)-8-{2-[4-(4-hydroxy-4-methyl-piperidine-1-carbonyl)-2,6-dimethyl-phenyl]-ethanesulfonyl}-1,3,8-triaza-spiro[4.5]dec-1-en-4-one]
11 | 26 | [2H]C([2H])([2H])N(C(=O)OC(C)(C)C)c1cc(C)c(/C=C/S(=O)(=O)N2CCC3(CC2)N=C(c2ccc(F)c(C(F)(F)F)c2)NC3=O)c(C)c1 [Compound 640, (4-{(E)-2-[2-(4-fluoro-3-trifluoromethyl-phenyl)-4-oxo-1,3,8-triaza-spiro[4.5]dec-1-ene-8-sulfonyl]-vinyl}-3,5-dimethyl-phenyl)-[1,1,1-^2H3]methyl-carbamic acid tert-butyl ester]
12 | 83 | CCC1CCC(C2=NC3(CCN(S(=O)(=O)CCc4ccc(C(=O)N(C)C)cc4C)CC3)C(=O)N2)CC1 (stereo not drawn) [Compound 896, 4-{2-[2-(4-ethyl-cyclohexyl)-4-oxo-1,3,8-triaza-spiro[4.5]dec-1-ene-8-sulfonyl]-ethyl}-3,N,N-trimethyl-benzamide]
13 | 66 | Cc1cc(C(=O)N2CCN(CCO)CC2)ccc1CCS(=O)(=O)N1CCC2(CC1)N=C(c1cccc(OC(F)(F)F)c1)NC2=O [Compound 416, 8-(2-{4-[4-(2-Hydroxy-ethyl)-piperazine-1-carbonyl]-2-methyl-phenyl}-ethanesulfonyl)-2-(3-trifluoromethoxy-phenyl)-1,3,8-triaza-spiro[4.5]dec-1-en-4-one]

More lines, now with the values behind:

Row | Compound | cAMP production activity (%)
14 | CC(=O)N(C)c1cccc(/C=C/S(=O)(=O)N2CCC3(CC2)N=C(c2cccc(OC(F)(F)F)c2)NC3=O)c1C [Compound 236, N-methyl-N-(2-methyl-3-{(E)-2-[4-oxo-2-(3-trifluoromethoxy-phenyl)-1,3,8-triaza-spiro[4.5]dec-1-ene-8-sulfonyl]-vinyl}-phenyl)-acetamide] | 40
15 | Cc1cccc(C2=NC3(CCN(S(=O)(=O)CCc4ccc(C(=O)N(C)C)cc4C)CC3)C(=O)N2)n1 [Compound 97, 3,N,N-trimethyl-4-{2-[2-(6-methyl-pyridin-2-yl)-4-oxo-1,3,8-triaza-spiro[4.5]dec-1-ene-8-sulfonyl]-ethyl}-benzamide] | 4.3
16 | Cc1c(O)cccc1/C=C/S(=O)(=O)N1CCC2(CC1)N=C(c1cccc(OC(F)(F)F)c1)NC2=O [Compound 226, 8-[(E)-2-(3-Hydroxy-2-methyl-phenyl)-ethenesulfonyl]-2-(3-trifluoromethoxy-phenyl)-1,3,8-triaza-spiro[4.5]dec-1-en-4-one] | 83
17 | Cc1cc(C(=O)N(C)C)ccc1CCS(=O)(=O)N1CCC2(CC1)N=C(c1ccc(C(F)(F)F)cc1F)NC2=O [Compound 139, 4-{2-[2-(2-fluoro-4-trifluoromethyl-phenyl)-4-oxo-1,3,8-triaza-spiro[4.5]dec-1-ene-8-sulfonyl]-ethyl}-3,N,N-trimethyl-benzamide] | 64
18 | Cc1cc(C(=O)N(C)CC(N)=O)cc(C)c1/C=C/S(=O)(=O)N1CCC2(CC1)N=C(c1cccc(C(F)(F)F)c1)NC2=O [Compound 392, N-carbamoylmethyl-3,5,N-trimethyl-4-{(E)-2-[4-oxo-2-(3-trifluoromethyl-phenyl)-1,3,8-triaza-spiro[4.5]dec-1-ene-8-sulfonyl]-vinyl}-benzamide] | 83
19 | Cc1cc(OC[C@H](O)CO)ccc1CCS(=O)(=O)N1CCC2(CC1)N=C(c1cccc(OC(F)(F)F)c1)NC2=O [Compound 325, 8-{2-[4-((R)-2,3-Dihydroxy-propoxy)-2-methyl-phenyl]-ethanesulfonyl}-2-(3-trifluoromethoxy-phenyl)-1,3,8-triaza-spiro[4.5]dec-1-en-4-one] | 61
20 | Cc1cc(N2C(=O)NC(COC(C)(C)C)C2=O)cc(C)c1/C=C/S(=O)(=O)N1CCC2(CC1)N=C([C@H]1CC[C@H](C)CC1)NC2=O (stereo partly drawn) [Compound 589, 5-tert-butoxymethyl-3-(3,5-dimethyl-4-{(E)-2-[2-(4-methyl-cyclohexyl)-4-oxo-1,3,8-triaza-spiro[4.5]dec-1-ene-8-sulfonyl]-vinyl}-phenyl)-imidazolidine-2,4-dione] | 22
21 | O=C1NC(C2CCCCC2)=NC12CCN(S(=O)(=O)c1cc3ccccc3s1)CC2 [Compound 54, 8-(benzo[b]thiophene-2-sulfonyl)-2-cyclohexyl-1,3,8-triaza-spiro[4.5]dec-1-en-4-one] | 35
22 | O=C1NC(c2cccc(OC(F)(F)F)c2)=NC12CCN(S(=O)(=O)CCc1ccccc1C(F)(F)F)CC2 [Compound 304, 2-(3-trifluoromethoxy-phenyl)-8-[2-(2-trifluoromethyl-phenyl)-ethanesulfonyl]-1,3,8-triaza-spiro[4.5]dec-1-en-4-one] | 47
23 | Cc1cc(C(=O)N2CCC(O)CC2)ccc1CCS(=O)(=O)N1CCC2(CC1)N=C(c1cccc(OC(F)(F)F)c1)NC2=O [Compound 285, 8-{2-[4-(4-hydroxy-piperidine-1-carbonyl)-2-methyl-phenyl]-ethanesulfonyl}-2-(3-trifluoromethoxy-phenyl)-1,3,8-triaza-spiro[4.5]dec-1-en-4-one] | 65
24 | Cc1cc(S(=O)(=O)Nc2cccnc2)ccc1CCS(=O)(=O)N1CCC2(CC1)N=C(c1cccc(C(F)(F)F)c1)NC2=O [Compound 294, 3-methyl-4-{2-[4-oxo-2-(3-trifluoromethyl-phenyl)-1,3,8-triaza-spiro[4.5]dec-1-ene-8-sulfonyl]-ethyl}-N-pyridin-3-yl-benzenesulfonamide] | 106
